The structures appear in SMILES notation. Where a name gives a salt, the structure may show the parent alone.

A word on the melting point: it is the temperature of the solid-liquid transition.

In one data set the test system is C5a induced PMN migration. As to the kind of experiment: Inhibition of C5a induced chemotaxis of human PMNs (microchamber assay). The data set is classed as cell-based. The conditions noted are these: compound concentration range between 10^−7 and 10^−8 M, C5a 10^−9 M, 60 min at 37° C. The protocol:
The compounds of the invention of formula (I) were evaluated in vitro for their ability to inhibit chemotaxis of polymorphonucleate leukocytes (hereinafter referred to as PMNs) and monocytes induced by the fractions of the complement C5a and C5a-desArg. For this purpose, to isolate the PMNs from heparinized human blood, taken from healthy adult volunteers, mononucleates were removed by means of sedimentation on dextran (according to the procedure disclosed by W. J. Ming et al., J. Immunol., 138, 1469, 1987) and red blood cells by a hypotonic solution. The cell vitality was calculated by exclusion with Trypan blue, whilst the ratio of the circulating polymorphonucleates was estimated on the cytocentrifugate after staining with Diff Quick.
Human recombinant fractions C5a and C5a-desArg (Sigma) were used as stimulating agents in the chemotaxis experiments, giving practically identical results.
The lyophilized C5a was dissolved in a volume of HBSS containing 0.2% bovin serum albumin BSA so thus to obtain a stock solution having a concentration of 10^−5 M to be diluted in HBSS to a concentration of 10^−9 M, for the chemotaxis assays.
In the chemotaxis experiments, the PMNs were incubated with the compounds of the invention of formula (I) for 15′ at 37° C. in an atmosphere containing 5% CO2.
The chemotactic activity of the C5a was evaluated on human circulating polymorphonucleates (PMNs) resuspended in HBSS at a concentration of 1.5×10^6 PMNs per mL.
During the chemotaxis assay (according to W. Falket et al., J. Immunol. Methods, 33, 239, 1980) PVP-free filters with a porosity of 5 μm and microchambers suitable for replication were used.
The compounds of the invention in formula (I) were evaluated at a concentration ranging between 10^−7 and 10^−10 M; for this purpose they were added, at the same concentration, both to the lower pores and the upper pores of the microchamber. The wells in the lower part contain the solution of C5a or the simple carrier, those in the upper part contain the suspension of PMNs.
Inhibition of C5a-induced chemotactic activity by the individual compounds of the invention of formula (I) was evaluated by incubating the microchamber for the chemotaxis for 60 min at 37° C. in an atmosphere containing 5% CO2.
By way of example, the inhibition data of the chemotaxis of PMN (concentration range between 10^−7 and 10^−8 M) of some representative compounds of the invention are reported in Table 1.
Regarding `C[C@@H](NC(=O)c1cccnc1)c1ccc(OS(=O)(=O)C(F)(F)F)cc1` [Compound 15, 4-{[(1R)-1-(pyridine-3-ylcarbonyl)amino]ethyl]}phenyl trifluoromethanesulfonate], the “% inhibition C5a induced PMN migration” value is given as 46 ± 6%. As to `C[C@@H](NS(C)(=O)=O)c1cccc(C(=O)c2ccco2)c1` [Compound 6, N-[(1R)-1-[3-(2-furoyl)phenyl]ethyl}methanesulfonamide], the “% inhibition C5a induced PMN migration” value is reported as 52 ± 7%. As for `C[C@@H](NS(=O)(=O)c1ccc(C(=O)O)o1)c1cccc(C(=O)c2ccccc2)c1` [Compound 11, 5-({[(1R)-1-(3-benzoylphenyl)ethyl]amino}sulfonyl)-2-furoic acid], the “% inhibition C5a induced PMN migration” value is reported as 40 ± 4%. Consider `CC(C)C(=O)N[C@H](C)c1ccc(OS(=O)(=O)C(F)(F)F)cc1` [Compound 14, 4-[(1R)-1-(isobutyrylamino)ethyl]phenyl trifluoromethanesulfonate], for which the “% inhibition C5a induced PMN migration” value was 60 ± 8%. The same measure, in the same setting: under `COC(=O)c1ccc(S(=O)(=O)N[C@H](C)c2cccc(C(=O)c3ccccc3)c2)o1` [Compound 10, methyl 5-({[(1R)-1-(3-benzoylphenyl)ethyl]amino}sulfonyl)-2-furoate] stands 72 ± 6%. For the compound `C[C@@H](NS(C)(=O)=O)c1cccc(C(=O)c2ccccc2)c1` [Compound 4, N-[(1R)-1-(3-benzoylphenyl)ethyl]methanesulfonamide], the “% inhibition C5a induced PMN migration” value is on record as 48 ± 8%. Regarding `C[C@@H](NS(=O)(=O)c1cccs1)c1cccc(C(=O)c2ccco2)c1` [Compound 5, N-[(1R)-1-[3-(2-furoyl)phenyl]ethyl}thiophene-2-sulfonamide], the “% inhibition C5a induced PMN migration” value is recorded as 60 ± 8%. For `C[C@@H](NS(=O)(=O)c1cccs1)c1ccc(OS(=O)(=O)C(F)(F)F)cc1` [Compound 7, 4-{(1R)-1-[(thien-2-ylsulfonyl)amino]ethyl}phenyl trifluoromethanesulfonate], the “% inhibition C5a induced PMN migration” value came out at 41 ± 8%. Regarding `C[C@@H](NS(C)(=O)=O)c1ccc(C(C)(C)S(=O)(=O)c2ccccc2)cc1` [Compound 13, N-((1R)-1-{4-[1-methyl-1-(phenylsulfonyl)ethyl]phenyl}ethyl)methanesulfonamide], the “% inhibition C5a induced PMN migration” value came to 64 ± 8%.

As for `C[C@@H](NS(=O)(=O)c1ccccc1)c1ccc(OS(=O)(=O)C(F)(F)F)cc1` [Compound 1, 4-{(1R)-1-[(phenylsulfonyl)amino]ethyl}phenyl trifluoromethanesulfonate], the “% inhibition C5a induced PMN migration” value came to 50 ± 1 %. Take `CC(C)[C@@H](NS(C)(=O)=O)c1ccc(OS(=O)(=O)C(F)(F)F)cc1` [Compound 12, 4-{(1R)-2-methyl-1-[(methylsulfonyl)amino]propyl}phenyl trifluoromethanesulfonate]: the “% inhibition C5a induced PMN migration” value amounted to 40 ± 5%. For the compound `C[C@@H](NC(=O)CCCN1CCCC1)c1ccc(OS(=O)(=O)C(F)(F)F)cc1` [Compound 20, 4-{(1R)-1-[(4-pyrrolidin-1-ylbutanoyl)amino]ethyl]}phenyl trifluoromethanesulfonate], the “% inhibition C5a induced PMN migration” value is 47 ± 1%. The same measure, in the same setting: as for `C[C@@H](NS(=O)(=O)c1cccnc1)c1ccc(OS(=O)(=O)C(F)(F)F)cc1` [Compound 3, 4-{(1R)-1-[(pyridine-3-ylsulfonyl)amino]ethyl}phenyl trifluoromethanesulfonate], the figure is 47 ± 7%; as for `C[C@@H](Nc1nc(C(F)(F)F)cs1)c1cccc(C(=O)c2ccccc2)c1` [Compound 21], 42 ± 5%; as for `C[C@@H](NC(=O)C1CCC1)c1cccc(C(=O)c2ccccc2)c1` [Compound 18, N-[(1R)-1-(3-benzoylphenyl)ethyl]cyclobutanecarboxamide], 57 ± 4%. The same measure, in the same setting: under `C[C@@H](NC(=O)c1ccco1)c1cccc(C(=O)c2ccccc2)c1` [Compound 17, N-[(1R)-1-(3-benzoylphenyl)ethyl]-2-furamide] stands 63 ± 10%.

With `C[C@@H](NS(=O)(=O)c1cccs1)c1cccc(C(=O)c2ccccc2)c1` [Compound 8, N-[(1R)-1-(3-benzoylphenyl]ethyl}thiophene-2-sulfonamide], the “% inhibition C5a induced PMN migration” value was 55 ± 14%. In the case of `C[C@@H](NS(=O)(=O)c1ccccc1)c1cccc(C(=O)c2ccccc2)c1` [Compound 2, N-[(1R)-1-(3-benzoylphenyl)ethyl]benzenesulfonamide], the “% inhibition C5a induced PMN migration” value was 59 ± 10%.

With `C[C@@H](NC(=O)c1ccccc1)c1cccc(C(=O)c2ccccc2)c1` [Compound 16, N-[(1R)-1-(3-benzoylphenyl)ethyl]benzamide], the “% inhibition C5a induced PMN migration” value worked out at 49 ± 5 %. Still for that read-out and setting: as for `C[C@@H](NC(=O)CCCN1CCCCC1)c1ccc(OS(=O)(=O)C(F)(F)F)cc1` [Compound 19, N-[(1R)-1-(4-trifluoromethanesulfonyloxy)phenylethyl]-4-piperidin-1-ylbutanamide], the figure is 54 ± 17%.

Tested on in a further data set: not given
Experiment: not given
Conditions: not given
Consider `C[C@@H](NS(=O)(=O)c1cccs1)c1cccc(C(=O)c2ccco2)c1` [Compound 5, N-[(1R)-1-[3-(2-furoyl)phenyl]ethyl}thiophene-2-sulfonamide], for which the melting point lay within 105 to 106 °C.

Compound `C[C@@H](NC(=O)c1cccnc1)c1ccc(OS(=O)(=O)C(F)(F)F)cc1` (as salt: methanesulfonate) [Compound 15, 4-{[(1R)-1-(pyridine-3-ylcarbonyl)amino]ethyl]}phenyl trifluoromethanesulfonate] gave a melting point of 120 to 122 °C.

The compound `C[C@@H](NC(=O)C1CCC1)c1cccc(C(=O)c2ccccc2)c1` [Compound 18, N-[(1R)-1-(3-benzoylphenyl)ethyl]cyclobutanecarboxamide] had a melting point of 90 to 93 °C.

Values taken from US8026367B2, “(R)-arylalkylamino derivatives and pharmaceutical compositions containing them” (Dompe PHA.R.MA S.p.A., priority 2005, dated 2011).
